Compound COC1=CC(=O)C[C@@H](C)[C@]12Oc1c(Cl)c(OC)cc(OC)c1C2=O has a solubility (mole fraction) (in DMF, 278.15 K) of 0.00484, a solubility (mole fraction) (in DMF, 283.15 K) of 0.00541 and a solubility (mole fraction) (in DMF, 288.15 K) of 0.0061. The solubility (mole fraction) (in DMF, 293.15 K) was 0.00703, the solubility (mole fraction) (in DMF, 298.15 K) was 0.00811 and the solubility (mole fraction) (in DMF, 303.15 K) was 0.00933. It also gave a solubility (mole fraction) (in DMF, 308.15 K) of 0.0106, a solubility (mole fraction) (in DMF, 313.15 K) of 0.012 and a solubility (mole fraction) (in DMF, 318.15 K) of 0.0136. The solubility (mole fraction) (in DMF, 323.15 K) was 0.0155, the solubility (mole fraction) (in NMP, 278.15 K) was 0.0324 and the solubility (mole fraction) (in NMP, 283.15 K) was 0.0344. It also gave a solubility (mole fraction) (in NMP, 288.15 K) of 0.0369, a solubility (mole fraction) (in NMP, 293.15 K) of 0.0394 and a solubility (mole fraction) (in NMP, 298.15 K) of 0.0425. It also gave a solubility (mole fraction) (in NMP, 303.15 K) of 0.045, a solubility (mole fraction) (in NMP, 308.15 K) of 0.0479 and a solubility (mole fraction) (in NMP, 313.15 K) of 0.0511. For the same compound, the solubility (mole fraction) (in NMP, 318.15 K) was 0.0541, the solubility (mole fraction) (in NMP, 323.15 K) was 0.0573 and the solubility (mole fraction) (in acetonitrile, 278.15 K) was 0.00331. The solubility (mole fraction) (in acetonitrile, 283.15 K) was 0.00369, the solubility (mole fraction) (in acetonitrile, 288.15 K) was 0.00418 and the solubility (mole fraction) (in acetonitrile, 293.15 K) was 0.00473. It also gave a solubility (mole fraction) (in acetonitrile, 298.15 K) of 0.00536, a solubility (mole fraction) (in acetonitrile, 303.15 K) of 0.00611 and a solubility (mole fraction) (in acetonitrile, 308.15 K) of 0.00697. The solubility (mole fraction) (in acetonitrile, 313.15 K) was 0.00795, the solubility (mole fraction) (in acetonitrile, 318.15 K) was 0.00899 and the solubility (mole fraction) (in acetonitrile, 323.15 K) was 0.0102. For the same compound, the solubility (mole fraction) (in ethanol, 278.15 K) was 0.000218, the solubility (mole fraction) (in ethanol, 283.15 K) was 0.000255 and the solubility (mole fraction) (in ethanol, 288.15 K) was 0.000303. It also gave a solubility (mole fraction) (in ethanol, 293.15 K) of 0.00037, a solubility (mole fraction) (in ethanol, 298.15 K) of 0.000446 and a solubility (mole fraction) (in ethanol, 303.15 K) of 0.000542. It also gave a solubility (mole fraction) (in ethanol, 308.15 K) of 0.00065, a solubility (mole fraction) (in ethanol, 313.15 K) of 0.000779 and a solubility (mole fraction) (in ethanol, 318.15 K) of 0.000928. The solubility (mole fraction) (in ethanol, 323.15 K) was 0.00112, the solubility (mole fraction) (in methanol, 278.15 K) was 0.000246 and the solubility (mole fraction) (in methanol, 283.15 K) was 0.00028. For the same compound, the solubility (mole fraction) (in methanol, 288.15 K) was 0.000332, the solubility (mole fraction) (in methanol, 293.15 K) was 0.000413 and the solubility (mole fraction) (in methanol, 298.15 K) was 0.000517. For the same compound, the solubility (mole fraction) (in methanol, 303.15 K) was 0.000632, the solubility (mole fraction) (in methanol, 308.15 K) was 0.00077 and the solubility (mole fraction) (in methanol, 313.15 K) was 0.000929. The solubility (mole fraction) (in methanol, 318.15 K) was 0.00111, the solubility (mole fraction) (in methanol, 323.15 K) was 0.00133 and the solubility (mole fraction) (in water, 278.15 K) was 1.93e-07. The solubility (mole fraction) (in water, 283.15 K) was 2.5e-07, the solubility (mole fraction) (in water, 288.15 K) was 3.08e-07 and the solubility (mole fraction) (in water, 293.15 K) was 3.86e-07. For the same compound, the solubility (mole fraction) (in water, 298.15 K) was 4.7e-07, the solubility (mole fraction) (in water, 303.15 K) was 5.7e-07 and the solubility (mole fraction) (in water, 308.15 K) was 7.18e-07. It also gave a solubility (mole fraction) (in water, 313.15 K) of 8.91e-07, a solubility (mole fraction) (in water, 318.15 K) of 1.1e-06 and a solubility (mole fraction) (in water, 323.15 K) of 1.36e-06.

Source: BigSolDB 2.1
